In patent US20060121483A1, “Methods for detecting teneurin signalling and related screening methods” (priority 2002, published 2006):
Where a SMILES comes first, the peptide text is derived from it. [ ]: non-standard residue; d: D form. Nle = CCCC[C@H](N)C(=O)O

Assays:
Format in all cases: cell-based
[1] = tested on: transcriptional activity of Zic; assay: Zic / ApoE-luciferase reporter assay in EcR 293 stable transfectants
K3 cells = assay: Proliferation assay, K3 cells; conditions: 5 day period, crystal violet, ponasterone induces the cytoplasmic domain of teneurin-2
Protocol: (§1) The effect of the expression of the cytoplasmic domain of teneurin-2 on cell proliferation was tested. K3 cells (EcR-293 cells (Invitrogen) containing the stably integrated plasmid pVgRXR (Invitrogen) and the plnd teneurin-2 plasmid encoding the cytoplasmic domain, described in Example 7) were cultured in the presence or absence of ponasterone, which induces expression of the cytoplasmic domain of teneurin-2. Typically, over a 5 day period, parallel cultures were fixed with 4% formaldehyde every day and cell numbers were determined by staining the cells with crystal violet (0.1% in H20). In the presence of ponasterone and thus in the presence of the cytoplasmic domain of teneurin, the K3 cells were retarded in their growth rate to about 50% of the untreated cells. Proliferation of EcR-293 cells without transfected cytoplasmic domain of teneurin-2 was not affected by the addition of ponasterone, proving that the growth retardation was specifically dependent on the presence of the cytoplasmic domain of teneurin-2.

EcR-293 cells = assay: Proliferation assay, EcR-293 cells; conditions: EcR-293 cells without transfected cytoplasmic domain of teneurin-2
Protocol: as §1

teneurin-2 C = assay: Teneurin-2 C expression level after co-transfection with Zic; conditions: HT1080 cells, transient co-transfection of teneurin-2 C and Zic; lactacystin 10 μM
Protocol: (§2) HT1 080 human fibrosarcoma (ATCC CRL-12012) and COS-7 cells (SV40-transformed kidney fibroblasts from the African green monkey, ATCC CRL-1651) were routinely maintained In DMEM medium (Dulbecco's Modified Eagles Medium) supplemented with 10% FCS (fetal calf serum). For transient transfections the cells were seeded in 6-well plates or 4-well staining dishes (Greiner). Twelve hours later they were transfected with the expression vectors containing the constructs (1 μg of each vector) described above and in Example 2 (Zic), Example 4 and Example 5 by using FUGENE-6 (3 μl, 6 μl or 9 μl for one, two to three, or four different plasmids, respectively). The cells were treated with the following substances at least five hours after transfection: ALLN (25 μg/ml; N-acetyl-leu-leu-norleu-AL; Sigma); tunicamycin (2 μg/ml; Sigma) or lactacystin (10 μM; e.g. Sigma) for four or eight hours prior to harvesting. […]
(§3) The gels were transferred to PVDF (polyvinylidene fluoride) membranes. The proteins were detected by anti-GAL4 antibody (BDAD and BDAD-C) or by anti-teneurin-2 serum (BDAD-CTE and BDAD-CTEY), horseradish peroxidase coupled secondary antibodies and ECL SuperSignal® (Pierce).
In this Example, it was determined whether the zinc finger transcription factor Zic, a vertebrate homologue of opa would influence, or be influenced by, the cytoplasmic domain of teneurin-2. […]

BDAD-CTEY = assay: BDAD-teneurin-2 fusion GAL4 luciferase reporter (cleavage) assay; conditions: addition of protease inhibitors; ALLN 25 μg/ml, lactacystin 10 μM
Protocol: as §2, with “respectively).” for “respectively). The cells were treated with the following substances at least five hours after transfection: ALLN (25 μg/ml; N-acetyl-leu-leu-norleu-AL; Sigma); tunicamycin (2 μg/ml; Sigma) or lactacystin (10 μM; e.g. Sigma) for four or eight hours prior to harvesting.”
The cells were lysed by adding reporter lysis buffer (Promega). Serial dilutions of the lysed cell suspension were then pipetted into Microlite™ luciferase plates (Dynex Technologies) and the luciferase activity was measured in a Microlumat (LB96P, EG+G Berthold) by automatic injection of luciferin substrate solution (2 mM luciferin, 100 mM ATP in 250 mM glycin pH 7.8, 150 mM MgSO4). […] To stop the enzymatic reaction, three times the sample volume of 1 M Na2CO3 was added and the OD was measured at 405 nm in a microplate reader (BioRad). […]

teneurin-2 CTE = assay: Western blot of teneurin-2 CTE and its cleavage products; conditions: two cleavage products, one the size of the cytoplasmic domain alone
Protocol: as §2, §3

SMILES	expression level of the reporter gene (ApoE-luciferase) after induction of teneurin-2 C ([1]; EcR 293 stable transfectants transiently transfected with Zic, ponasterone induces teneurin-2 C)	growth rate relative to untreated cells (K3 cells)	proliferation (EcR-293 cells)	Zic induced downregulation of teneurin-2 C (teneurin-2 C)	induction of luciferase activity following transfection of BDAD-CTEY (BDAD-CTEY)	stabilization of teneurin-2 C ([1]; ALLN 25 μg/ml)	inhibitory effect of teneurin-2 C on the transcriptional activity of Zic (ApoE-luciferase reporter) ([1]; EcR 293 cells, teneurin-2 C induced by ponasterone, in the presence of ALLN)	stabilisation of cleavage products of CTE (western blot) (teneurin-2 CTE)
CC(C)CC[C@@H](O)[C@](C)(O)[C@H]1CC[C@@]2(O)C3=CC(=O)[C@@H]4C[C@@H](O)[C@@H](O)C[C@]4(C)[C@H]3CC[C@]12C [ponasterone]	marked reduction	about 50%	not affected					
CC(=O)N[C@@H](CSC(=O)[C@]1([C@@H](O)C(C)C)NC(=O)[C@H](C)[C@@H]1O)C(=O)O [lactacystin]				counteracted	markedly upregulated			
CCCC[C@@H](C=O)NC(=O)[C@H](CC(C)C)NC(=O)[C@H](CC(C)C)NC(C)=O [ALLN, N-acetyl-leu-leu-norleu-AL] (Ac-Leu-Leu-[Nle]-aldehyde)					markedly upregulated	stabilize teneurin-2 C	more pronounced	stabilisation of two particular cleavage products
